Structures can show the parent of a compound that is named as a salt.
Assays:
LTD4 receptor = biological target: T1, LTD4 receptor (Cavia porcellus, UniProt Q2NNR5); test: LTD4 Receptor Binding Inhibition Test ([3H]LTD4, guinea pig pulmomembranous protein); settings: read-out: LTD4 receptor dissociation constant (KD)
T1 construct: guinea pig pulm-omembranous protein and a test compound; from tissue; host or cells: guinea pig lung membranes
T1 sequence (Q2NNR5 1-340): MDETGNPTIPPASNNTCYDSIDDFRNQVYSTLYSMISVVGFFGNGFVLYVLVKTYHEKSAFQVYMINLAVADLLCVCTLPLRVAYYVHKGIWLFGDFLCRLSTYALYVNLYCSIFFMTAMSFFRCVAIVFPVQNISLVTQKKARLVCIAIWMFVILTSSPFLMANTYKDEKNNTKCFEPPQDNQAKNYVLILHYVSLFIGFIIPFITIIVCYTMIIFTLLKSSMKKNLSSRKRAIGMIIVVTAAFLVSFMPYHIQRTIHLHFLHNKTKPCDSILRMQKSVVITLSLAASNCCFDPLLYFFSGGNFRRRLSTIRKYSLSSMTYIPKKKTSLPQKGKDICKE
Protocol: LTD4 Receptor Binding Inhibition Test
An ice-cold tris hydrochloride/sodium chloride buffer (10 mM/100 mM, pH 7.5) was added to terminate the reaction, followed by immediate filtration through a Wattman CF/C filter. The filter was washed twice with 20 ml aliquots of the ice-cold buffer. The radioactivity of the residue was measured by a liquid scintillation counter.
In a binding assay, […] LTD4 was used for the measurement of a nonspecific binding.

[1] = biological target: T2, isolated guinea pig ileum (Cavia porcellus, UniProt Q2NNR5); test: Anti-LTD4 action on isolated guinea pig ileum (LTD4 contraction); format: cell-based; settings: 10^-5 M test compound; contraction caused by 10^-8 M LTD4; read-out: Anti-LTD4 action (inhibition rate)
T2 construct: An isolated guinea pig ileum was cut into about 2 cm lengths; from tissue; host or cells: guinea pig ileum
T2 sequence (Q2NNR5 1-340): T1 sequence (Q2NNR5 1-340)
Protocol: Antihistaminic Action and Anti-LTD4 Action (In vitro Tests)
An isolated guinea pig ileum was cut into about 2 cm lengths. Each ileum piece was suspended in a 20-ml container filled with the Tyrode's buffer. An isotonic contractive response by histamine or LTD4 was recorded on a recorder. The Tyrode's buffer was controlled at 30° C., through which a mixed gas (95%O2 -5%CO2) was bubbled.

H1 receptor = biological target: T3, H1 receptor (Cavia porcellus, UniProt P31389); test: H1 Receptor Binding Inhibition Test ([3H]mepyramin, guinea pig cerebromembranous protein); settings: read-out: H1 receptor dissociation constant (KD)
T3 construct: guinea pig cerebromembranous protein and a test compound; from tissue; host or cells: guinea pig brain membranes
Protocol: H1 Receptor Binding Inhibition Test
An ice-cold phosphate buffer was added to terminate the reaction, followed by immediate filtration through a Wattman CF/C filter. The filter was washed twice with 20 ml aliquots of the ice-cold buffer. The radio-activity of the residue was measured by a liquid scintillation counter. From a measurement value obtained without the addition of the test compound and measurements values obtained upon addition of the test compound at various concentrations, the dose-response of the inhibitory action of the test compound was measured and the 50% inhibitory concentration (IC50) was determined. Using the Cheng-Prusoff formula, a dissociation constant (KD) was calculated from the 50% inhibitory concentration (IC50).
In a binding assay, 10^4 M R(-)dimethindene was used for the measurement of a nonspecific binding.

T3 sequence (P31389 whole entry): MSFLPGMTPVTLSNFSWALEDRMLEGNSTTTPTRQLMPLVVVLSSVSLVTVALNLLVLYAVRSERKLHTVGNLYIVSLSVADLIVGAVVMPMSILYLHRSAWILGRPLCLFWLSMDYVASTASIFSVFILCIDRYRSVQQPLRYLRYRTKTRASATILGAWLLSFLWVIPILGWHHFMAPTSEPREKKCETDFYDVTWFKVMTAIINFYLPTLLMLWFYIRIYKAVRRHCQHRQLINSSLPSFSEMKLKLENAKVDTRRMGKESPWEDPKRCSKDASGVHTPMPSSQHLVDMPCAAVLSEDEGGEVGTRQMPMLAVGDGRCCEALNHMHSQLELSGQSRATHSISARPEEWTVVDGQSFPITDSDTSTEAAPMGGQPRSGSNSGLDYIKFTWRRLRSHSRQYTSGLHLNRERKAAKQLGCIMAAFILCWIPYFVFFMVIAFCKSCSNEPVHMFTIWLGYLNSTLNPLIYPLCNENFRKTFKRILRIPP

CC1(C)C(=O)Nc2ccc(OCCN3CCN(Cc4ccc5ccccc5n4)CC3)cc21 [Example 1, 3,3-dimethyl-5-{2-[4-(2-quinolylmethyl)-1-piperazinyl]ethoxy}-2,3-dihydro-1H-indol-2-one]
Ki (LTD4 receptor): 3240 nM | inhibition at 10 µM [1]: 16% | Ki (H1 receptor): 173 nM

Cc1ccc(OCCCCCN2CCN(Cc3ccc4ccccc4n3)CC2)c2c1NC(=O)C2(C)C [Example 9, 3,3,7-Trimethyl-4-{5-[4-(2-quinolylmethyl)-1-piperazinyl]pentyloxy}-2,3-dihydro-1H-indol-2-one]
Ki (LTD4 receptor): 49600 nM | inhibition at 10 µM [1]: 40% | Ki (H1 receptor): 13.5 nM

Cc1ccc(OCCCN2CCN(Cc3nc4ccccc4n3C)CC2)c2c1NC(=O)C2(C)C [Example 26, 3,3,7-Trimethyl-4-{3-[4-(N-methylbenzoimidazol-2-ylmethyl)-1-piperazinyl]propoxy}-2,3-dihydro-1H-indol-2-one]
Ki (LTD4 receptor): 3340 nM | inhibition at 10 µM [1]: 27% | Ki (H1 receptor): 36.3 nM

CC1(C)C(=O)Nc2c(OCCCN3CCN(Cc4ccc5ccccc5n4)CC3)cccc21 [Example 29, 3,3-Dimethyl-7-{3-[4-(2-quinolylmethyl)-1-piperazinyl]propoxy}-2,3-dihydro-1H-indol-2-one]
inhibition at 10 µM [1]: 48%

O=C1CCc2ccc(OCCN3CCN(Cc4ccc5ccccc5n4)CC3)cc2N1 [Example 32, 7-{2-[4-(2-Quinolylmethyl)-1-piperazinyl]ethoxy}-1,2,3,4-tetrahydroquinolin-2-one]
inhibition at 10 µM [1]: 20%

O=c1ccc2ccc(OCCCN3CCN(Cc4ccc5ccccc5n4)CC3)cc2[nH]1 [Example 36, 7-{3-[4-(2-Quinolylmethyl)-1-piperazinyl]propoxy}-1,2-dihydroquinolin-2-one]
Ki (LTD4 receptor): 1990 nM | inhibition at 10 µM [1]: 46% | Ki (H1 receptor): 0.00349 nM

O=c1ccc2ccc(OCCN3CCN(Cc4ccc5ccccc5n4)CC3)cc2[nH]1 [Example 39, 7-{2-[4-(2-Quinolylmethyl)-1-piperazinyl]ethoxy}-1,2-dihydroquinolin-2-one]
inhibition at 10 µM [1]: 30%

CC1(C)C(=O)Nc2cccc(OCCCN3CCN(Cc4ccc5ccccc5n4)CC3)c21 [Example 41, 3,3-Dimethyl-4-{3-[4-(2-quinolylmethyl)-1-piperazinyl]propoxy}-2,3-dihydro-1H-indol-2-one]
Ki (LTD4 receptor): 3830 nM | Ki (H1 receptor): 4.32 nM

CC1(C)C(=O)Nc2cc(OCCCCCN3CCN(Cc4ccc5ccccc5n4)CC3)ccc21 [Example 42, 3,3-Dimethyl-6-{5-[4-(2-quinolylmethyl)-1-piperazinyl]pentyloxy}-2,3-dihydro-1H-indol-2-one]
inhibition at 10 µM [1]: 13%

O=C1CCc2cccc(OCCCCN3CCN(Cc4ccc5ccccc5n4)CC3)c2N1 [Example 44, 8-{4-[4-(2-Quinolylmethyl)-1-piperazinyl]butoxy}-1,2,3,4-tetrahydroquinolin-2-one]
inhibition at 10 µM [1]: 47%

O=C1CCc2cccc(OCCCN3CCN(Cc4ccc5ccccc5n4)CC3)c2N1 [Example 45, 8-{3-[4-(2-Quinolylmethyl)-1-piperazinyl]propoxy)-1,2,3,4-tetrahydroquinolin-2-one]
Ki (LTD4 receptor): 1980 nM | Ki (H1 receptor): 3.39 nM

CC1(C)C(=O)Nc2ccc(OCCN3CCCN(Cc4ccc5ccccc5n4)CC3)cc21 [Example 50, 3,3-dimethyl-5-{2-[4-(2-quinolylmethyl)-1-homopiperazinyl]ethoxy}-2,3-dihydro-1H-indol-2-one dimaleate]
Ki (LTD4 receptor): 8600 nM | Ki (H1 receptor): 457 nM

Cc1ccc(OCCN2CCCN(Cc3ccc4ccccc4n3)CC2)c2c1NC(=O)C2(C)C [Example 54, 3,3,7-Trimethyl-4-{2-[4-(2-quinolylmethyl)-1-homopiperazinyl]ethoxy}-2,3-dihydro-1H-indol-2-one]
Ki (LTD4 receptor): 881000 nM | Ki (H1 receptor): 0.249 nM

Cc1ccc(OCCCN2CCCN(Cc3ccc4ccccc4n3)CC2)c2c1NC(=O)CC2 [Example 60, 8-Methyl-5-{3-[4-(2-quinolylmethyl)-1-homopiperazinyl]propoxy}-1,2,3,4-tetrahydroquinolin-2-one]
Ki (LTD4 receptor): 8730 nM | Ki (H1 receptor): 5.45 nM

Cc1ccc(OCCN2CCCN(Cc3ccc4ccccc4n3)CC2)c2c1NC(=O)CC2 [Example 61, 8-Methyl-5-{2-[4-(2-quinolylmethyl)-1-homopiperazinyl]ethoxy}-1,2,3,4-tetrahydroquinolin-2-one]
Ki (LTD4 receptor): 1610 nM | inhibition at 10 µM [1]: 19% | Ki (H1 receptor): 4.69 nM

CC1(C)C(=O)Nc2c(OCCCN3CCCN(Cc4ccc5ccccc5n4)CC3)cccc21 [Example 69, 3,3-Dimethyl-7-{3-[4-(2-quinolylmethyl)-1-homopiperazinyl]propoxy}-2,3-dihydro-1H-indol-2-one]
inhibition at 10 µM [1]: 25%

Cn1c(CN2CCCN(CCOc3ccc4c(c3)CCC(=O)N4)CC2)nc2ccccc21 [Example 75, 6-{2-[4-(N-Methylbenzoimidazol-2-ylmethyl)-1-homopiperazinyl]ethoxy}-1,2,3,4-tetrahydroquinolin-2-one]
Ki (LTD4 receptor): 7340 nM | Ki (H1 receptor): 55.8 nM

Cn1c(CN2CCCN(CCOc3ccc4[nH]c(=O)ccc4c3)CC2)nc2ccccc21 [Example 77, 6-{2-[4-(N-Methylbenzoimidazol-2-ylmethyl)-1-homopiperazinyl]ethoxy}-1,2-dihydroquinolin-2-one]
Ki (LTD4 receptor): 110000 nM | Ki (H1 receptor): 74.5 nM

CC1(C)C(=O)Nc2cc(OCCCN3CCCN(Cc4ccc5ccccc5n4)CC3)ccc21 [Example 78, 3,3-Dimethyl-6-{3-[4-(2-quinolylmethyl)-1-homopiperazinyl]propoxy}-2,3-dihydro-1H-indol-2-one]
Ki (LTD4 receptor): 7430 nM | inhibition at 10 µM [1]: 27% | Ki (H1 receptor): 18.2 nM

O=c1ccc2ccc(OCCN3CCCN(Cc4ccc5ccccc5n4)CC3)cc2[nH]1 [Example 79, 7-{2-[4-(2-Quinolylmethyl)-1-homopiperazinyl]ethoxy}-1,2-dihydroquinolin-2-one]
Ki (LTD4 receptor): 8610 nM | inhibition at 10 µM [1]: 19% | Ki (H1 receptor): 75.9 nM

Cn1c(CN2CCCN(CCOc3ccc4ccc(=O)[nH]c4c3)CC2)nc2ccccc21 [Example 80, 7-{2-[4-(N-Methylbenzoimidazol-2-ylmethyl)-1-homopiperazinyl]ethoxy)-1,2-dihydroquinolin-2-one]
Ki (LTD4 receptor): 18400 nM | inhibition at 10 µM [1]: 11% | Ki (H1 receptor): 4.31 nM

O=C1CCc2ccc(OCCN3CCCN(Cc4ccc5ccccc5n4)CC3)cc2N1 [Example 81, 7-{2-[4-(2-Quinolylmethyl)-1-homopiperazinyl]ethoxy}-1,2,3,4-tetrahydroquinolin-2-one]
inhibition at 10 µM [1]: 19%

CCOCCn1c(CN2CCCN(CCCOc3ccc4c(c3)SCC(=O)N4)CC2)nc2ccccc21 [Example 83, 7-{3-[4-(N-Ethoxyethylbenzoimidazol-2-ylmethyl)-1-homopiperazinyl]-propoxy}-3,4-dihydro-2H-1,4-benzothiazin-3-one]
inhibition at 10 µM [1]: 26%

CC1(C)C(=O)Nc2cccc(OCCCN3CCCN(Cc4ccc5ccccc5n4)CC3)c21 [Example 85, 3,3-Dimethyl-4-{3-[4-(2-quinolylmethyl)-1-homopiperazinyl]propoxy}-2,3-dihydro-1H-indol-2-one]
Ki (LTD4 receptor): 35700 nM | inhibition at 10 µM [1]: 21% | Ki (H1 receptor): 18.3 nM

O=C1CCc2cccc(OCCCN3CCCN(Cc4ccc5ccccc5n4)CC3)c2N1 [Example 88, 8-{3-[4-(2-Quinolylmethyl)-1-homopiperazinyl]propoxy}-1,2,3,4-tetrahydroquinolin-2-one]
inhibition at 10 µM [1]: 12%

O=C1CCc2cccc(OCCCCN3CCCN(Cc4ccc5ccccc5n4)CC3)c2N1 [Example 89, 8-{4-[4-(2-Quinolylmethyl)-1-homopiperazinyl]butoxy}-1,2,3,4-tetrahydroquinolin-2-one]
inhibition at 10 µM [1]: 21%

Cc1ccc(OCCN2CCN(Cc3ccc4ccccc4n3)CC2)c2c1NC(=O)C2(C)C [Example 93, 3,3,7-Trimethyl-4-{2-[4-(2-quinolylmethyl)-1-piperazinyl]ethoxy}-2,3-dihydro-1H-indol-2-one]
Ki (LTD4 receptor): 5900 nM | Ki (H1 receptor): 71 nM

Cc1ccc(OCCCN2CCCN(Cc3ccc4ccccc4n3)CC2)c2c1NC(=O)C2(C)C [Example 97, 3,3,7-Trimethyl-4-{3-[4-(2-quinolylmethyl)-1-homopiperazinyl]propoxy}-2,3-dihydro-1H-indol-2-one]
Ki (LTD4 receptor): 15900 nM | Ki (H1 receptor): 187 nM

O=C1CSc2cc(OCCCN3CCN(C(=O)c4ccc5ccccc5n4)CC3)ccc2N1 [Example 102, 7-{3-[4-(2-quinolylcarbonyl)piperazinyl]propoxy}-3,4-dihydro-2H-1,4-benzothiazin-3-one maleate]
inhibition at 10 µM [1]: 10%

— patent US6127360A, “Diamine derivatives and pharmaceutical containing the same” (Kowa Co., Ltd., priority 1997, dated 2000)
